Measurements as given in patent US9682925B2, “Cyclopropaneamine compound” (TAKEDA PHARMACEUTICAL COMPANY LIMITED, priority 2011, dated 2017).
Structures can show the parent of a compound that is named as a salt.

Columns and labels:
Type in all cases: biochemical
MAO-B = target: T1, MAO-B (Homo sapiens, UniProt P27338); assay: Measurement of MAO-B inhibitory activity (MAO-Glo Assay)
T1 construct: purchased Sigma-Aldrich Co. LLC
T1 sequence (P27338 1-520): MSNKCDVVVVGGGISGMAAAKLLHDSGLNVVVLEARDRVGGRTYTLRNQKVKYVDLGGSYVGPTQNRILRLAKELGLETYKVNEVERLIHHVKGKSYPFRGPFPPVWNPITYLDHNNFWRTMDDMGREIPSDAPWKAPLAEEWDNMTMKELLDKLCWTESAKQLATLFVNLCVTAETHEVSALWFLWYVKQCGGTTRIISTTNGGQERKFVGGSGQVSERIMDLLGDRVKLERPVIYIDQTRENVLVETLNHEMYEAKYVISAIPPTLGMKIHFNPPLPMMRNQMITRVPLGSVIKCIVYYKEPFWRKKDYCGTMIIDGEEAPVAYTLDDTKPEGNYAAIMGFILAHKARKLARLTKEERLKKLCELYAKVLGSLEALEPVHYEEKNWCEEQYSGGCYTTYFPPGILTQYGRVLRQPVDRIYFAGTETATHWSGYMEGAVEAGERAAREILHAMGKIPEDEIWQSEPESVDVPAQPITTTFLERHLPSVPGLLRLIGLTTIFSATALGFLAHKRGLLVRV
Method in brief: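 Percent inhibition was calculated from luciferin-based luminescence, corrected with a blank lacking enzyme and a control lacking compound. The reaction ran 60 min at room temperature after adding MAO substrate (16 µM as added). This followed a 10 min compound–enzyme preincubation in HEPES pH 7.5 buffer.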

human LSD1(171-852) = target: T2, human LSD1(171-852) (Homo sapiens, UniProt O60341); assay: Measurement of LSD1 inhibitory activity (time-resolved fluorescence, biotin-histone H3 mono methylated K4 peptide); details: read-out: LSD1 IC50 value
T2 construct: to give hLSD1(171-852) purified product; made in house; host or cells: Escherichia coli C43(DE3) pLysS

MAO-A = target: T3, MAO-A (Homo sapiens, UniProt P21397); assay: Measurement of MAO-A inhibitory activity (MAO-Glo Assay)
T3 construct: purchased Sigma-Aldrich Co. LLC
T3 sequence (P21397 1-527): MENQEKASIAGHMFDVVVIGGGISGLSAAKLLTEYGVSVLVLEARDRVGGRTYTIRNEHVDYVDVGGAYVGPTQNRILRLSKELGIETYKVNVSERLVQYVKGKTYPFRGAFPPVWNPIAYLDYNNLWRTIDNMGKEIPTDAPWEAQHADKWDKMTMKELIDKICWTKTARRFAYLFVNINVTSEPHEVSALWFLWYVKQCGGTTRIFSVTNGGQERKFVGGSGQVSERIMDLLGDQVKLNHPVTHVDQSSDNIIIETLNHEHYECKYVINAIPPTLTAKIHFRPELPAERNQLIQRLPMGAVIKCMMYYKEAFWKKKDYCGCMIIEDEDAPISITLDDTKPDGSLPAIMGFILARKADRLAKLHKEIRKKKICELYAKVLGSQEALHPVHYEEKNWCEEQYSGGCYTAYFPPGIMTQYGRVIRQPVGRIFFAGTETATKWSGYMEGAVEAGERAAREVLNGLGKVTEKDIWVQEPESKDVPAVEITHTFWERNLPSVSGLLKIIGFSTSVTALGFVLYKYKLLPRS
Method in brief: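 Luminescent MAO-Glo read-out: % inhibition computed from counts relative to enzyme-only control and enzyme-free blank. Compound and 400 ng MAO-A in HEPES pH 7.5 with 5% glycerol stood 10 min at room temperature before MAO substrate (160 μM stock) started a 60 min reaction.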

O=C(Nc1ccc([C@@H]2C[C@H]2NC2CCN(Cc3ccccc3)CC2)cc1)c1ccccc1 (relative stereo) [Example 25, N-(4-{trans-2-[(1-benzyl-piperidin-4-yl)amino]cyclo-propyl}phenyl)-benzamide]
IC50 (MAO-B): > 10 µM | IC50 (human LSD1(171-852)): < 0.1 µM | IC50 (MAO-A): > 10 µM

CCC(CC)N[C@@H]1C[C@H]1c1ccc(NC(=O)c2ccc(-c3ccccc3)cc2)cc1 (relative stereo) [Example 49, N-(4-{trans-2-[(1-ethylpropyl)amino]-cyclopropyl}phenyl)-biphenyl-4-carboxamide]
IC50 (MAO-B): > 10 µM | IC50 (human LSD1(171-852)): < 0.1 µM | IC50 (MAO-A): > 10 µM

Cc1cc(C2CC2NCC2CC2)ccc1NC(=O)c1ccccc1 (stereo not drawn) [Example 81, N-(4-{trans-2-[(cyclopropylmethyl)amino]cyclopropyl}-2-methylphenyl)benzamide hydrochloride]
IC50 (MAO-B): > 10 µM | IC50 (human LSD1(171-852)): < 0.1 µM | IC50 (MAO-A): > 10 µM

O=C(Nc1ccc([C@@H]2C[C@H]2NCC2CC2)cc1)c1cccc(-n2ccnc2)c1 (relative stereo) [Example 148, N-(4-{trans-2-[(cyclopropylmethyl)amino]cyclopropyl}phenyl)-3-(1H-imidazol-1-yl)benzamide hydrochloride]
IC50 (MAO-B): > 10 µM | IC50 (human LSD1(171-852)): < 0.1 µM | IC50 (MAO-A): 8.3 µM

O=C(Nc1ccc([C@@H]2C[C@H]2NC2CCOCC2)cc1)c1ccc(-c2ccccc2)cc1 (relative stereo) [Example 61, N-{4-[trans-2-(tetrahydro-2H-pyran-4-ylamino)cyclopropyl]phenyl}biphenyl-4-carboxamide hydrochloride]
IC50 (MAO-B): 3.3 µM | IC50 (human LSD1(171-852)): < 0.1 µM | IC50 (MAO-A): 2.2 µM

CN1CCC(N[C@@H]2C[C@H]2c2ccc(NC(=O)c3ccc(-c4ccccc4)cc3)cc2)CC1 (relative stereo) [Example 50, N-(4-{trans-2-[(1-methylpiperidin-4-yl)amino]cyclo-propyl}phenyl)-biphenyl-4-carboxamide]
IC50 (MAO-B): > 10 µM | IC50 (human LSD1(171-852)): < 0.1 µM | IC50 (MAO-A): > 10 µM

Cc1cc(NC(=O)c2ccccc2)ccc1[C@@H]1C[C@H]1NCC1CC1 (relative stereo) [Example 82, N-(4-{trans-2-[(cyclopropylmethyl)amino]cyclopropyl}-3-methylphenyl)benzamide hydrochloride]
IC50 (MAO-B): > 10 µM | IC50 (human LSD1(171-852)): < 0.1 µM | IC50 (MAO-A): > 10 µM

CC(N[C@@H]1C[C@H]1c1ccc(NC(=O)c2ccc(-c3ccccc3)cc2)cc1)c1ccccc1 (relative stereo) [Example 47, N-(4-{trans-2-[(1-phenylethyl)amino]-cyclopropyl}phenyl)-biphenyl-4-carboxamide]
IC50 (MAO-B): 1.7 µM | IC50 (human LSD1(171-852)): 0.19 µM | IC50 (MAO-A): 1.8 µM

CN1CCN(c2cccc(C(=O)Nc3ccc([C@@H]4C[C@H]4NCC4CC4)cc3)c2)CC1 (relative stereo) [Example 131, N-(4-{trans-2-[(cyclopropyl-methyl)amino]-cyclopropyl}-phenyl)-3-(4-methylpiperazin-l-yl)benzamide]
IC50 (MAO-B): > 10 µM | IC50 (human LSD1(171-852)): < 0.1 µM | IC50 (MAO-A): > 10 µM

CCCCCCCCN[C@@H]1C[C@H]1c1ccc(NC(=O)c2cccc(Br)c2)cc1 (relative stereo) [Example 4, 3-bromo-N-{4-[trans-2-(octylamino)cyclopropyl]phenyl}benzamide]
IC50 (MAO-B): > 10 µM | IC50 (human LSD1(171-852)): 0.24 µM | IC50 (MAO-A): > 10 µM

CS(=O)(=O)Nc1cccc(C(=O)Nc2ccc([C@@H]3C[C@H]3NCC3CC3)cc2)c1 (relative stereo) [Example 136, N-(4-{trans-2-[(cyclopropylmethyl)amino]cyclopropyl}phenyl)-3-[(methylsulfonyl)amino]benzamide hydrochloride]
IC50 (MAO-B): > 10 µM | IC50 (human LSD1(171-852)): < 0.1 µM | IC50 (MAO-A): > 10 µM

O=C(Nc1ccc([C@@H]2C[C@H]2NCc2cn3ccsc3n2)cc1)c1cccc(C(F)(F)F)c1 (relative stereo) [Example 160, N-(4-{trans-2-[(imidazo[2,1-b][1,3]thiazol-6-ylmethyl)amino]cyclopropyl}phenyl)-3-(trifluoromethyl)benzamide dihydrochloride]
IC50 (MAO-B): > 10 µM | IC50 (human LSD1(171-852)): < 0.1 µM | IC50 (MAO-A): 5.1 µM

O=C(Nc1ccc([C@@H]2C[C@H]2NCc2ccccc2)cc1)c1cccc(Oc2ccccc2)c1 (relative stereo) [Example 10, N-{4-[trans-2-(benzylamino)cyclopropyl]phenyl}-3-phenoxybenzamide]
IC50 (MAO-B): > 10 µM | IC50 (human LSD1(171-852)): 0.14 µM | IC50 (MAO-A): 3.3 µM

O=C(Nc1ccc([C@@H]2C[C@H]2NCC2CC2)cc1)c1cc(-c2ccccc2)cs1 (relative stereo) [Example 137, N-(4-{trans-2-[(cyclopropylmethyl)amino]cyclopropyl}phenyl)-4-phenylthiophene-2-carboxamide hydrochloride]
IC50 (MAO-B): > 10 µM | IC50 (human LSD1(171-852)): < 0.1 µM | IC50 (MAO-A): 4.2 µM

CCCCCCCCCCCCN[C@@H]1C[C@H]1c1ccc(NC(=O)c2ccccc2)cc1 (relative stereo) [Example 22, N-{4-[trans-2-(dodecylamino)-cyclopropyl]-phenyl}benzamide]
IC50 (MAO-B): 2.6 µM | IC50 (human LSD1(171-852)): 0.41 µM | IC50 (MAO-A): 3.6 µM

O=C(Nc1ccc([C@@H]2C[C@H]2NCC2CC2)cc1)c1ccc2[nH]ncc2c1 (relative stereo) [Example 99, N-(4-{trans-2-[(cyclopropylmethyl)-amino]cyclopropyl}-phenyl)-1H-indazole-5-carboxamide]
IC50 (MAO-B): > 10 µM | IC50 (human LSD1(171-852)): < 0.1 µM | IC50 (MAO-A): > 10 µM

COc1cccc(CN[C@@H]2C[C@H]2c2ccc(NC(=O)c3ccc(-c4ccccc4)cc3)cc2)c1 (relative stereo) [Example 41, N-(4-{trans-2-[(3-methoxybenzyl)-amino]cyclo-propyl}phenyl)-biphenyl-4-carboxamide]
IC50 (MAO-B): 5.1 µM | IC50 (human LSD1(171-852)): 0.11 µM | IC50 (MAO-A): 5.8 µM

O=C(Nc1ccc([C@@H]2C[C@H]2NCC2CC2)cc1)c1cnn(-c2ccccc2)c1 (relative stereo) [Example 124, N-(4-{trans-2-[(cyclopropyl-methyl)amino]cyclo-propyl}phenyl)-1-phenyl-1H-pyrazole-4-carboxamide]
IC50 (MAO-B): > 10 µM | IC50 (human LSD1(171-852)): < 0.1 µM | IC50 (MAO-A): > 10 µM

CC(=O)N1CCC(N[C@@H]2C[C@H]2c2ccc(NC(=O)c3ccc(-c4ccccc4)cc3)cc2)CC1 (relative stereo) [Example 62, N-(4-{trans-2-[(1-acetylpiperidin-4-yl)amino]cyclopropyl}phenyl)biphenyl-4-carboxamide hydrochloride]
IC50 (MAO-B): > 10 µM | IC50 (human LSD1(171-852)): < 0.1 µM | IC50 (MAO-A): > 10 µM

O=C(Nc1ccc([C@@H]2C[C@H]2N2CCCC2)cc1)c1ccccc1 (relative stereo) [Example 30, N-{4-[trans-2-(pyrrolidin-1-yl)cyclopropyl]phenyl}benzamide hydrochloride]
IC50 (MAO-B): > 10 µM | IC50 (human LSD1(171-852)): 0.58 µM | IC50 (MAO-A): 1.7 µM

CN(C(=O)c1ccc(-c2ccccc2)cc1)c1ccc([C@@H]2C[C@H]2NCC2CC2)cc1 (relative stereo) [Example 64, N-(4-{trans-2-[(cyclopropylmethyl)amino]cyclopropyl}phenyl)-N-methylbiphenyl-4-carboxamide hydrochloride]
IC50 (MAO-B): > 10 µM | IC50 (human LSD1(171-852)): 0.2 µM | IC50 (MAO-A): 8.5 µM

CN(C)c1ccc(C(=O)Nc2ccc([C@@H]3C[C@H]3NCC3CC3)cc2)cc1 (relative stereo) [Example 84, N-(4-{trans-2-[(cyclopropylmethyl)amino]cyclopropyl}-phenyl)-4-(dimethylamino)-benzamide]
IC50 (MAO-B): > 10 µM | IC50 (human LSD1(171-852)): < 0.1 µM | IC50 (MAO-A): > 10 µM

O=C(Nc1ccc([C@@H]2C[C@H]2NCC2CC2)cc1)c1cccc(-c2ncccn2)c1 (relative stereo) [Example 139, N-(4-{trans-2-[(cyclopropylmethyl)amino]cyclopropyl}phenyl)-3-(pyrimidin-2-yl)benzamide hydrochloride]
IC50 (MAO-B): > 10 µM | IC50 (human LSD1(171-852)): < 0.1 µM | IC50 (MAO-A): 8.2 µM
